In publication PMC4319022 (The Journal of Biological Chemistry, 2014):
Read-outs that look alike come from different tables or passages of the source.

Columns and labels:
human α7 nAChR [1] = target: T1, human α7 nAChR (Homo sapiens, UniProt P36544); assay: two-electrode voltage clamp, Xenopus oocytes; assay type: cell-based
T1 construct: gene CHRNA7; full-length subunit cDNA in pSP64GL, cRNA injected in Xenopus laevis oocytes, homopentamer
Description: two-electrode voltage clamp, Xenopus oocytes on human α7 nAChR

human α7 nAChR [2] = target: T1, human α7 nAChR; assay: two-electrode voltage clamp, Xenopus oocytes; assay type: cell-based; remark: listed apart in the source

T1 sequence (P36544 23-502): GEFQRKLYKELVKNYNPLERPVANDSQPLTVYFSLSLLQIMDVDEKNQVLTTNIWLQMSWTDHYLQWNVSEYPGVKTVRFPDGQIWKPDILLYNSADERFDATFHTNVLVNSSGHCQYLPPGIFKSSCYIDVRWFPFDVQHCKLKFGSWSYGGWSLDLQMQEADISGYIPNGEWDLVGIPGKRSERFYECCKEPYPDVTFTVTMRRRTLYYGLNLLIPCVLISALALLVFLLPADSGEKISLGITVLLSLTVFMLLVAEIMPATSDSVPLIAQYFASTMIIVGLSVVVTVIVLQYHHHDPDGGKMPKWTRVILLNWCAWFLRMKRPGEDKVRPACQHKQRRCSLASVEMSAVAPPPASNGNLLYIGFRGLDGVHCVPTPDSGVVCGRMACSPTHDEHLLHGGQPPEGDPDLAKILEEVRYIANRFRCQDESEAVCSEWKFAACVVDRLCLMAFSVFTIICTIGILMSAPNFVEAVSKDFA

Compound	EC50 (human α7 nAChR [1]; read-out: EC50) [µM]	also measured
Cc1cc(C)cc(C2Nc3ccc(S(N)(=O)=O)cc3C3C=CCC32)c1 (stereo not drawn) [3,5MP-TQS, cis-cis-4-(3,5-dimethylphenyl)-3a,4,5,9b-tetrahydro-3H-cyclopenta[c]quinoline-8-sulfonamide]	3.7 ± 1.2	
Cc1cc(C)c(C2Nc3ccc(S(N)(=O)=O)cc3C3C=CCC32)c(C)c1 (stereo not drawn) [2,4,6MP-TQS, cis-trans-4-mesityl-3a,4,5,9b-tetrahydro-3H-cyclopenta[c]quinoline-8-sulfonamide]		IC50 (human α7 nAChR [2]): 5.2 ± 0.8 µM
Cc1ccc(C2Nc3ccc(S(N)(=O)=O)cc3C3C=CCC32)cc1 (stereo not drawn) [4MP-TQS, cis-cis-4-p-tolyl-3a,4,5,9b-tetrahydro-3H-cyclopenta[c]quinoline-8-sulfonamide]	27 ± 3.1	
Cc1cc(C)c(C)c(C2Nc3ccc(S(N)(=O)=O)cc3C3C=CCC32)c1 (stereo not drawn) [2,3,5MP-TQS, cis-cis-4-(2,3,5-trimethylphenyl)-3a,4,5,9b-tetrahydro-3H-cyclopenta[c]quinoline-8-sulfonamide]	3.9 ± 0.7	
Cc1ccc(C2Nc3ccc(S(N)(=O)=O)cc3C3C=CCC32)c(C)c1C (stereo not drawn) [2,3,4MP-TQS, cis-cis-4-(2,3,4-trimethylphenyl)-3a,4,5,9b-tetrahydro-3H-cyclopenta[c]quinoline-8-sulfonamide]	9.8 ± 0.8	
Cc1cccc(C)c1C1Nc2ccc(S(N)(=O)=O)cc2C2C=CCC21 (stereo not drawn) [2,6MP-TQS, cis-trans-4-(2,6-dimethylphenyl)-3a,4,5,9b-tetrahydro-3H-cyclopenta[c]quinoline-8-sulfonamide]		IC50 (human α7 nAChR [2]): 43 ± 14 µM
Cc1ccc(C2Nc3ccc(S(N)(=O)=O)cc3C3C=CCC32)cc1C (stereo not drawn) [3,4MP-TQS, cis-cis-4-(3,4-dimethylphenyl)-3a,4,5,9b-tetrahydro-3H-cyclopenta[c]quinoline-8-sulfonamide]		Imax (human α7 nAChR [1]; 100 μM, allosteric agonist, relative to 3 mM acetylcholine, -60 mV): 7.8 ± 3.0 fold effect
Cc1ccc(C)c(C2Nc3ccc(S(N)(=O)=O)cc3C3C=CCC32)c1C (stereo not drawn) [2,3,6MP-TQS, cis-trans-4-(2,3,6-trimethylphenyl)-3a,4,5,9b-tetrahydro-3H-cyclopenta[c]quinoline-8-sulfonamide]		IC50 (human α7 nAChR [2]): 23 ± 2.8 µM
Cc1cccc(C2Nc3ccc(S(N)(=O)=O)cc3C3C=CCC32)c1 (stereo not drawn) [3MP-TQS, cis-cis-4-m-tolyl-3a,4,5,9b-tetrahydro-3H-cyclopenta[c]quinoline-8-sulfonamide]		Fold potentiation (human α7 nAChR [1]; allosteric potentiation (type II PAM) of 100 μM acetylcholine, maximal PAM concentration (100 μM, Figure 4), -60 mV): 22 ± 2.1 fold
Cc1ccccc1C1Nc2ccc(S(N)(=O)=O)cc2C2C=CCC21 (stereo not drawn) [2MP-TQS, cis-cis-4-o-tolyl-3a,4,5,9b-tetrahydro-3H-cyclopenta[c]quinoline-8-sulfonamide]	16 ± 1.3	
Cc1c(C)c(C)c(C2Nc3ccc(S(N)(=O)=O)cc3C3C=CCC32)c(C)c1C (stereo not drawn) [PentaMP-TQS, cis-trans-4-(2,3,4,5,6-pentamethylphenyl)-3a,4,5,9b-tetrahydro-3H-cyclopenta[c]quinoline-8-sulfonamide]		EC50 (human α7 nAChR [1]; allosteric potentiation (type I PAM) of 100 μM acetylcholine, 10 s preapplication, -60 mV, bell-shaped curve, unreliable): 0.55 ± 0.36 µM
Cc1ccc(C2Nc3ccc(S(N)(=O)=O)cc3C3C=CCC32)c(C)c1 (stereo not drawn) [2,4MP-TQS, cis-cis-4-(2,4-dimethylphenyl)-3a,4,5,9b-tetrahydro-3H-cyclopenta[c]quinoline-8-sulfonamide]	11 ± 1	
Cc1cc(C)c(C2Nc3ccc(S(N)(=O)=O)cc3C3C=CCC32)c(C)c1C (stereo not drawn) [2,3,4,6MP-TQS, cis-trans-4-(2,3,4,6-tetramethylphenyl)-3a,4,5,9b-tetrahydro-3H-cyclopenta[c]quinoline-8-sulfonamide]	9.1 ± 2	
